The values that follow are results of earlier work, collected in patent US10988420B2, “Nanoparticles of layered double hydroxides containing non-polar compounds of plant origin, and method for the separation and selective release of said compounds” (UNIVERSIDAD DE GUADALAJARA, priority 2015, dated 2021).

For this series the following is noted: lycopene not encapsulated; prior art (Meléndez-Martinez 2004).

On to `CC(C)=CCC/C(C)=C/C=C/C(C)=C/C=C/C(C)=C/C=C/C=C(C)/C=C/C=C(C)/C=C/C=C(\C)CCC=C(C)C` [lycopene], for which the “temperature at which lycopene is decomposed” value was 100-150 °C.
